Values of other authors as cited in patent US20120165520A1, “PROCESS FOR THE SYNTHESIS OF PRODRUGS OF OPIOIDS” (priority 2010, published 2012).

Experiments:
[1] = not given; remark: listed apart in the source

Row | Compound | fraction of an oral dose converted to dihydromorphine | oral bioavailability [1] [%]
1 | COc1ccc2c3c1O[C@H]1[C@@H](O)CC[C@H]4[C@@H](C2)N(C)CC[C@@]341 [dihydrocodeine] | less than 2% | –
2 | CCC1(c2cccc(O)c2)CCCCN(C)C1 (centres unmarked) [Meptazinol, meptazinol] | – | < 10
